Consider 24 compounds from the NIST ThermoML archive (doi:10.1016/j.jct.2017.11.017).

± gives the expanded uncertainty stated by the source.

This series in a line: activity coefficient (dimensionless); of the first substance listed, at infinite dilution; xn = mol fraction of the nth substance listed. To be noted: 101.33 kPa, Liquid, Chromatography, x1 = 0.

In the case of `CCOC(C)=O` [ethyl acetate] + C[n+]1ccn(CCCO)c1.N#CN=C=[N-], the activity coefficient (318.15 K) stood at 5.72 ± 0.39; the activity coefficient (328.15 K) turned out to be 5.95 ± 0.41; the activity coefficient (338.15 K) is 6.18 ± 0.42; the activity coefficient (348.15 K) was 6.36 ± 0.43; the activity coefficient (358.15 K) was 6.61 ± 0.45; the activity coefficient (368.15 K) worked out at 6.86 ± 0.47.

In the case of `CCc1ccccc1` [ethylbenzene] + C[N+]1(CCCO)CCOCC1.N#C[N-]C#N, the activity coefficient reads like this: (318.15 K) 26.4 ± 1.8; (328.15 K) 26.3 ± 1.8; (338.15 K) 26.3 ± 1.8; (348.15 K) 26.2 ± 1.8; (358.15 K) 26.2 ± 1.8; (368.15 K) 26.2 ± 1.8.

Regarding `CCc1ccccc1` [ethylbenzene] + C[n+]1ccn(CCCO)c1.N#CN=C=[N-], the activity coefficient runs as follows: (318.15 K) 14.6 ± 1; (328.15 K) 14.9 ± 1; (338.15 K) 15.3 ± 1; (348.15 K) 15.5 ± 1.1; (358.15 K) 15.9 ± 1.1; (368.15 K) 16.1 ± 1.1.

On to `CCCCCCC` [heptane] + C[N+]1(CCCO)CCOCC1.N#C[N-]C#N, for which the activity coefficient (298.15 K) worked out at 1540 ± 110 and the activity coefficient (308.15 K) is 1290 ± 89.

As to `CCCCCCC` [heptane] + C[n+]1ccn(CCCO)c1.N#CN=C=[N-], the activity coefficient was found to be 562 ± 39 (298.15 K); 504 ± 35 (308.15 K); 447 ± 31 (318.15 K); 402 ± 28 (328.15 K); 366 ± 25 (338.15 K); 334 ± 23 (348.15 K). Moreover, the activity coefficient (358.15 K) came out at 306 ± 21.

`C=CCCCC` [hex-1-ene] + C[n+]1ccn(CCCO)c1.N#CN=C=[N-]: the activity coefficient is, setting by setting: (298.15 K) 123 ± 8; (308.15 K) 116 ± 8; (318.15 K) 109 ± 7; (328.15 K) 102 ± 7; (338.15 K) 97.5 ± 6.7; (348.15 K) 92.5 ± 6.3. Also, for the setting “358.15 K”, the activity coefficient is 89 ± 6.1.

Take `CCCCCC` [hexane] + C[n+]1ccn(CCCO)c1.N#CN=C=[N-]: the activity coefficient was found to be 357 ± 25 (298.15 K); 319 ± 22 (308.15 K); 286 ± 20 (318.15 K); 257 ± 18 (328.15 K); 233 ± 16 (338.15 K).

As for `CC(C)c1ccccc1` [isopropylbenzene] + C[N+]1(CCCO)CCOCC1.N#C[N-]C#N, the activity coefficient (318.15 K) was 52.5 ± 3.6; the activity coefficient (328.15 K) was 51.2 ± 3.5; the activity coefficient (338.15 K) came to 50.3 ± 3.4; the activity coefficient (348.15 K) worked out at 49.2 ± 3.4; the activity coefficient (358.15 K) came out at 48.4 ± 3.3; the activity coefficient (368.15 K) was 47.5 ± 3.3.

With `CC(C)c1ccccc1` [isopropylbenzene] + C[n+]1ccn(CCCO)c1.N#CN=C=[N-], the activity coefficient was 25.8 ± 1.8 (318.15 K); 26.2 ± 1.8 (328.15 K); 26.6 ± 1.8 (338.15 K); 26.8 ± 1.8 (348.15 K); 27.1 ± 1.9 (358.15 K); 27.4 ± 1.9 (368.15 K).

For `CO` [methanol] + C[N+]1(CCCO)CCOCC1.N#C[N-]C#N, the activity coefficient was 0.753 ± 0.05 (318.15 K); 0.763 ± 0.05 (328.15 K); 0.771 ± 0.05 (338.15 K); 0.778 ± 0.051 (348.15 K); 0.788 ± 0.051 (358.15 K); 0.791 ± 0.051 (368.15 K).

In the case of `CO` [methanol] + C[n+]1ccn(CCCO)c1.N#CN=C=[N-], the activity coefficient (318.15 K) worked out at 0.63 ± 0.04; the activity coefficient (328.15 K) came to 0.64 ± 0.04; the activity coefficient (338.15 K) came to 0.654 ± 0.045; the activity coefficient (348.15 K) stood at 0.66 ± 0.05; the activity coefficient (358.15 K) was 0.679 ± 0.046; the activity coefficient (368.15 K) is 0.69 ± 0.05.

With `CCCC(=O)OC` [methyl butanoate] + C[N+]1(CCCO)CCOCC1.N#C[N-]C#N, the activity coefficient is, setting by setting: (318.15 K) 15.8 ± 1.1; (328.15 K) 15.9 ± 1.1; (338.15 K) 16.1 ± 1.1; (348.15 K) 16.2 ± 1.1; (358.15 K) 16.3 ± 1.1; (368.15 K) 16.5 ± 1.1.

On to `CCCC(=O)OC` [methyl butanoate] + C[n+]1ccn(CCCO)c1.N#CN=C=[N-], for which the activity coefficient by setting is: (318.15 K) 9.03 ± 0.62; (328.15 K) 9.36 ± 0.64; (338.15 K) 9.67 ± 0.66; (348.15 K) 9.96 ± 0.68; (358.15 K) 10.3 ± 0.7; (368.15 K) 10.6 ± 0.7.

On to `COC(C)=O` [methyl ethanoate] + C[N+]1(CCCO)CCOCC1.N#C[N-]C#N, for which the activity coefficient came to 4.31 ± 0.29 (318.15 K); 4.41 ± 0.3 (328.15 K); 4.54 ± 0.31 (338.15 K); 4.64 ± 0.32 (348.15 K); 4.77 ± 0.33 (358.15 K); 4.89 ± 0.33 (368.15 K).

Turning to `COC(C)=O` [methyl ethanoate] + C[n+]1ccn(CCCO)c1.N#CN=C=[N-], the activity coefficient runs as follows: (318.15 K) 3.07 ± 0.21; (328.15 K) 3.21 ± 0.22; (338.15 K) 3.35 ± 0.23; (348.15 K) 3.5 ± 0.24; (358.15 K) 3.64 ± 0.25; (368.15 K) 3.8 ± 0.26.

Consider `CCC(=O)OC` [methyl propanoate] + C[N+]1(CCCO)CCOCC1.N#C[N-]C#N, for which the activity coefficient by setting is: (318.15 K) 8.18 ± 0.56; (328.15 K) 8.35 ± 0.57; (338.15 K) 8.51 ± 0.58; (348.15 K) 8.7 ± 0.59; (358.15 K) 8.81 ± 0.6; (368.15 K) 9.01 ± 0.61.

On to `CCC(=O)OC` [methyl propanoate] + C[n+]1ccn(CCCO)c1.N#CN=C=[N-], for which the activity coefficient was determined as 5.29 ± 0.36 (318.15 K); 5.48 ± 0.37 (328.15 K); 5.73 ± 0.39 (338.15 K); 5.92 ± 0.4 (348.15 K); 6.14 ± 0.42 (358.15 K); 6.34 ± 0.43 (368.15 K).

Take `CC1CCCCC1` [methylcyclohexane] + C[N+]1(CCCO)CCOCC1.N#C[N-]C#N: the activity coefficient reads like this: (298.15 K) 865 ± 60; (308.15 K) 654 ± 45; (318.15 K) 508 ± 35; (328.15 K) 404 ± 28; (338.15 K) 321 ± 22.

Regarding `CC1CCCCC1` [methylcyclohexane] + C[n+]1ccn(CCCO)c1.N#CN=C=[N-], the activity coefficient stood at 207 ± 14 (298.15 K); 187 ± 13 (308.15 K); 169 ± 12 (318.15 K); 154 ± 11 (328.15 K); 141 ± 10 (338.15 K); 131 ± 9 (348.15 K). The activity coefficient (358.15 K) stood at 121 ± 8.

With `CCCCCCCCC` [nonane] + C[N+]1(CCCO)CCOCC1.N#C[N-]C#N, the activity coefficient (308.15 K) is 2260 ± 160; the activity coefficient (318.15 K) stood at 1870 ± 130; the activity coefficient (328.15 K) was determined as 1570 ± 110; the activity coefficient (338.15 K) came to 1340 ± 92; the activity coefficient (348.15 K) turned out to be 1160 ± 80; the activity coefficient (358.15 K) amounted to 994 ± 69. For the same compound, where the note is “368.15 K”, the activity coefficient was determined as 867 ± 60.

Turning to `CCCCCCCCC` [nonane] + C[n+]1ccn(CCCO)c1.N#CN=C=[N-], the activity coefficient by setting is: (298.15 K) 1360 ± 94; (308.15 K) 1200 ± 83; (318.15 K) 1070 ± 74; (328.15 K) 955 ± 66; (338.15 K) 863 ± 59; (348.15 K) 780 ± 54. Moreover, the activity coefficient (358.15 K) is 722 ± 50.

As for `C=CCCCCCC` [oct-1-ene] + C[N+]1(CCCO)CCOCC1.N#C[N-]C#N, the activity coefficient was 1170 ± 81 (298.15 K); 937 ± 65 (308.15 K); 764 ± 53 (318.15 K); 635 ± 44 (328.15 K); 534 ± 37 (338.15 K); 453 ± 31 (348.15 K).

On to `C=CCCCCCC` [oct-1-ene] + C[n+]1ccn(CCCO)c1.N#CN=C=[N-], for which the activity coefficient reads like this: (298.15 K) 358 ± 25; (308.15 K) 331 ± 23; (318.15 K) 305 ± 21; (328.15 K) 282 ± 19; (338.15 K) 263 ± 18; (348.15 K) 245 ± 17. The activity coefficient (358.15 K) turned out to be 234 ± 16.

Regarding `CCCCCCCC` [octane] + C[N+]1(CCCO)CCOCC1.N#C[N-]C#N, the activity coefficient turned out to be 2070 ± 140 (298.15 K); 1730 ± 120 (308.15 K); 1460 ± 100 (318.15 K); 1260 ± 87 (328.15 K); 1090 ± 75 (338.15 K).
